# Laboratory results from ChEMBL document CHEMBL1671643, “Relative strengths of the class 1 integron promoter hybrid 2 and the combinations of strong and hybrid 1 with an active p2 promoter” (2009).
# Test system: Escherichia coli
# Experiment: Antimicrobial activity against Escherichia coli MC4100 harboring promoter hybrid 1 in beta-lactamase GES-1 by Etest
# Type: functional
row,SMILES,MIC [µg/mL]
1,CC(C)(O/N=C(\C(=O)N[C@@H]1C(=O)N2C(C(=O)[O-])=C(C[n+]3ccccc3)CS[C@H]12)c1csc(N)n1)C(=O)O [CEFTAZIDIME],1.5
2,CCN1CCN(C(=O)N[C@@H](C(=O)N[C@@H]2C(=O)N3[C@@H]2SC(C)(C)[C@@H]3C(=O)O)c2ccccc2)C(=O)C1=O [PIPERACILLIN],4
3,CC1(C)S[C@@H]2[C@H](NC(=O)[C@H](N)c3ccc(O)cc3)C(=O)N2[C@H]1C(=O)O [AMOXICILLIN],> 256
4,CO/N=C(\C(=O)N[C@@H]1C(=O)N2C(C(=O)O)=C(COC(N)=O)CS[C@H]12)c1ccco1 [CEFUROXIME],32
5,N[C@@H](C(=O)N[C@@H]1C(=O)N2C(C(=O)O)=C(Cl)CS[C@H]12)c1ccccc1 [CEFACLOR ANHYDROUS],8
6,C[C@H]1[C@H](NC(=O)/C(=N\OC(C)(C)C(=O)O)c2csc(N)n2)C(=O)N1S(=O)(=O)O [AZTREONAM],0.047
7,CO/N=C(\C(=O)N[C@@H]1C(=O)N2C(C(=O)[O-])=C(C[N+]3(C)CCCC3)CS[C@H]12)c1csc(N)n1 [CEFEPIME],0.064

# Test system: Escherichia coli
# Experiment: Antimicrobial activity against Escherichia coli MC4100 harboring a weak promoter in beta-lactamase GES-1 by Etest
# Type: functional
row,SMILES,MIC [µg/mL]
1,CC(C)(O/N=C(\C(=O)N[C@@H]1C(=O)N2C(C(=O)[O-])=C(C[n+]3ccccc3)CS[C@H]12)c1csc(N)n1)C(=O)O [CEFTAZIDIME],0.75
2,CCN1CCN(C(=O)N[C@@H](C(=O)N[C@@H]2C(=O)N3[C@@H]2SC(C)(C)[C@@H]3C(=O)O)c2ccccc2)C(=O)C1=O [PIPERACILLIN],2
3,CC1(C)S[C@@H]2[C@H](NC(=O)[C@H](N)c3ccc(O)cc3)C(=O)N2[C@H]1C(=O)O [AMOXICILLIN],> 256
4,CO/N=C(\C(=O)N[C@@H]1C(=O)N2C(C(=O)O)=C(COC(N)=O)CS[C@H]12)c1ccco1 [CEFUROXIME],8
5,N[C@@H](C(=O)N[C@@H]1C(=O)N2C(C(=O)O)=C(Cl)CS[C@H]12)c1ccccc1 [CEFACLOR ANHYDROUS],6
6,C[C@H]1[C@H](NC(=O)/C(=N\OC(C)(C)C(=O)O)c2csc(N)n2)C(=O)N1S(=O)(=O)O [AZTREONAM],0.047
7,CO/N=C(\C(=O)N[C@@H]1C(=O)N2C(C(=O)[O-])=C(C[N+]3(C)CCCC3)CS[C@H]12)c1csc(N)n1 [CEFEPIME],0.032

# Test system: Escherichia coli
# Experiment: Antimicrobial activity against Escherichia coli MC4100 harboring promoter hybrid 2 in beta-lactamase GES-1 by Etest
# Type: functional
row,SMILES,MIC [µg/mL]
1,CC(C)(O/N=C(\C(=O)N[C@@H]1C(=O)N2C(C(=O)[O-])=C(C[n+]3ccccc3)CS[C@H]12)c1csc(N)n1)C(=O)O [CEFTAZIDIME],4
2,CCN1CCN(C(=O)N[C@@H](C(=O)N[C@@H]2C(=O)N3[C@@H]2SC(C)(C)[C@@H]3C(=O)O)c2ccccc2)C(=O)C1=O [PIPERACILLIN],12
3,CC1(C)S[C@@H]2[C@H](NC(=O)[C@H](N)c3ccc(O)cc3)C(=O)N2[C@H]1C(=O)O [AMOXICILLIN],> 256
4,CO/N=C(\C(=O)N[C@@H]1C(=O)N2C(C(=O)O)=C(COC(N)=O)CS[C@H]12)c1ccco1 [CEFUROXIME],128
5,N[C@@H](C(=O)N[C@@H]1C(=O)N2C(C(=O)O)=C(Cl)CS[C@H]12)c1ccccc1 [CEFACLOR ANHYDROUS],24
6,C[C@H]1[C@H](NC(=O)/C(=N\OC(C)(C)C(=O)O)c2csc(N)n2)C(=O)N1S(=O)(=O)O [AZTREONAM],0.094
7,CO/N=C(\C(=O)N[C@@H]1C(=O)N2C(C(=O)[O-])=C(C[N+]3(C)CCCC3)CS[C@H]12)c1csc(N)n1 [CEFEPIME],0.125

# Test system: Escherichia coli
# Experiment: Antimicrobial activity against Escherichia coli MC4100 harboring strong promoter in beta-lactamase GES-1 by Etest
# Type: functional
row,SMILES,MIC [µg/mL]
1,CC(C)(O/N=C(\C(=O)N[C@@H]1C(=O)N2C(C(=O)[O-])=C(C[n+]3ccccc3)CS[C@H]12)c1csc(N)n1)C(=O)O [CEFTAZIDIME],12
2,CCN1CCN(C(=O)N[C@@H](C(=O)N[C@@H]2C(=O)N3[C@@H]2SC(C)(C)[C@@H]3C(=O)O)c2ccccc2)C(=O)C1=O [PIPERACILLIN],24
3,CC1(C)S[C@@H]2[C@H](NC(=O)[C@H](N)c3ccc(O)cc3)C(=O)N2[C@H]1C(=O)O [AMOXICILLIN],> 256
4,CO/N=C(\C(=O)N[C@@H]1C(=O)N2C(C(=O)O)=C(COC(N)=O)CS[C@H]12)c1ccco1 [CEFUROXIME],> 256
5,N[C@@H](C(=O)N[C@@H]1C(=O)N2C(C(=O)O)=C(Cl)CS[C@H]12)c1ccccc1 [CEFACLOR ANHYDROUS],256
6,C[C@H]1[C@H](NC(=O)/C(=N\OC(C)(C)C(=O)O)c2csc(N)n2)C(=O)N1S(=O)(=O)O [AZTREONAM],0.19
7,CO/N=C(\C(=O)N[C@@H]1C(=O)N2C(C(=O)[O-])=C(C[N+]3(C)CCCC3)CS[C@H]12)c1csc(N)n1 [CEFEPIME],0.19

# Test system: Escherichia coli
# Experiment: Antimicrobial activity against Escherichia coli MC4100 harboring promoter hybrid 1 and active promoter P2 in beta-lactamase GES-1 by Etest
# Type: functional
row,SMILES,MIC [µg/mL]
1,CC(C)(O/N=C(\C(=O)N[C@@H]1C(=O)N2C(C(=O)[O-])=C(C[n+]3ccccc3)CS[C@H]12)c1csc(N)n1)C(=O)O [CEFTAZIDIME],6
2,CCN1CCN(C(=O)N[C@@H](C(=O)N[C@@H]2C(=O)N3[C@@H]2SC(C)(C)[C@@H]3C(=O)O)c2ccccc2)C(=O)C1=O [PIPERACILLIN],16
3,CC1(C)S[C@@H]2[C@H](NC(=O)[C@H](N)c3ccc(O)cc3)C(=O)N2[C@H]1C(=O)O [AMOXICILLIN],> 256
4,CO/N=C(\C(=O)N[C@@H]1C(=O)N2C(C(=O)O)=C(COC(N)=O)CS[C@H]12)c1ccco1 [CEFUROXIME],256
5,N[C@@H](C(=O)N[C@@H]1C(=O)N2C(C(=O)O)=C(Cl)CS[C@H]12)c1ccccc1 [CEFACLOR ANHYDROUS],24
6,C[C@H]1[C@H](NC(=O)/C(=N\OC(C)(C)C(=O)O)c2csc(N)n2)C(=O)N1S(=O)(=O)O [AZTREONAM],0.125
7,CO/N=C(\C(=O)N[C@@H]1C(=O)N2C(C(=O)[O-])=C(C[N+]3(C)CCCC3)CS[C@H]12)c1csc(N)n1 [CEFEPIME],0.125

# Test system: Escherichia coli
# Experiment: Antimicrobial activity against Escherichia coli MC4100 expressing promoterless beta-lactamase GES-1 by Etest
# Type: functional
row,SMILES,MIC [µg/mL]
1,CC(C)(O/N=C(\C(=O)N[C@@H]1C(=O)N2C(C(=O)[O-])=C(C[n+]3ccccc3)CS[C@H]12)c1csc(N)n1)C(=O)O [CEFTAZIDIME],0.064
2,CCN1CCN(C(=O)N[C@@H](C(=O)N[C@@H]2C(=O)N3[C@@H]2SC(C)(C)[C@@H]3C(=O)O)c2ccccc2)C(=O)C1=O [PIPERACILLIN],1
3,CC1(C)S[C@@H]2[C@H](NC(=O)[C@H](N)c3ccc(O)cc3)C(=O)N2[C@H]1C(=O)O [AMOXICILLIN],4
4,CO/N=C(\C(=O)N[C@@H]1C(=O)N2C(C(=O)O)=C(COC(N)=O)CS[C@H]12)c1ccco1 [CEFUROXIME],2
5,N[C@@H](C(=O)N[C@@H]1C(=O)N2C(C(=O)O)=C(Cl)CS[C@H]12)c1ccccc1 [CEFACLOR ANHYDROUS],1.5
6,CO/N=C(\C(=O)N[C@@H]1C(=O)N2C(C(=O)[O-])=C(C[N+]3(C)CCCC3)CS[C@H]12)c1csc(N)n1 [CEFEPIME],0.032

# Test system: Escherichia coli
# Experiment: Antimicrobial activity against Escherichia coli MC4100 harboring strong promoter and active promoter P2 in beta-lactamase GES-1 by Etest
# Type: functional
row,SMILES,MIC [µg/mL]
1,CC(C)(O/N=C(\C(=O)N[C@@H]1C(=O)N2C(C(=O)[O-])=C(C[n+]3ccccc3)CS[C@H]12)c1csc(N)n1)C(=O)O [CEFTAZIDIME],16
2,CCN1CCN(C(=O)N[C@@H](C(=O)N[C@@H]2C(=O)N3[C@@H]2SC(C)(C)[C@@H]3C(=O)O)c2ccccc2)C(=O)C1=O [PIPERACILLIN],24
3,CC1(C)S[C@@H]2[C@H](NC(=O)[C@H](N)c3ccc(O)cc3)C(=O)N2[C@H]1C(=O)O [AMOXICILLIN],> 256
4,CO/N=C(\C(=O)N[C@@H]1C(=O)N2C(C(=O)O)=C(COC(N)=O)CS[C@H]12)c1ccco1 [CEFUROXIME],> 256
5,N[C@@H](C(=O)N[C@@H]1C(=O)N2C(C(=O)O)=C(Cl)CS[C@H]12)c1ccccc1 [CEFACLOR ANHYDROUS],256
6,C[C@H]1[C@H](NC(=O)/C(=N\OC(C)(C)C(=O)O)c2csc(N)n2)C(=O)N1S(=O)(=O)O [AZTREONAM],0.25
7,CO/N=C(\C(=O)N[C@@H]1C(=O)N2C(C(=O)[O-])=C(C[N+]3(C)CCCC3)CS[C@H]12)c1csc(N)n1 [CEFEPIME],0.19

# Test system: Escherichia coli
# Experiment: Antimicrobial activity against Escherichia coli MC4100 harboring weak promoter and active promoter P2 in beta-lactamase GES-1 by Etest
# Type: functional
row,SMILES,MIC [µg/mL]
1,CC(C)(O/N=C(\C(=O)N[C@@H]1C(=O)N2C(C(=O)[O-])=C(C[n+]3ccccc3)CS[C@H]12)c1csc(N)n1)C(=O)O [CEFTAZIDIME],4
2,CCN1CCN(C(=O)N[C@@H](C(=O)N[C@@H]2C(=O)N3[C@@H]2SC(C)(C)[C@@H]3C(=O)O)c2ccccc2)C(=O)C1=O [PIPERACILLIN],12
3,CC1(C)S[C@@H]2[C@H](NC(=O)[C@H](N)c3ccc(O)cc3)C(=O)N2[C@H]1C(=O)O [AMOXICILLIN],> 256
4,CO/N=C(\C(=O)N[C@@H]1C(=O)N2C(C(=O)O)=C(COC(N)=O)CS[C@H]12)c1ccco1 [CEFUROXIME],96
5,N[C@@H](C(=O)N[C@@H]1C(=O)N2C(C(=O)O)=C(Cl)CS[C@H]12)c1ccccc1 [CEFACLOR ANHYDROUS],24
6,C[C@H]1[C@H](NC(=O)/C(=N\OC(C)(C)C(=O)O)c2csc(N)n2)C(=O)N1S(=O)(=O)O [AZTREONAM],0.094
7,CO/N=C(\C(=O)N[C@@H]1C(=O)N2C(C(=O)[O-])=C(C[N+]3(C)CCCC3)CS[C@H]12)c1csc(N)n1 [CEFEPIME],0.094
